Literature values, collected in patent US7632832B2, “CGRP receptor antagonists” (Merck & Co., Inc., priority 2005, dated 2009).

Test system: CGRP
Conditions: marmoset, electrical stimulation of the trigeminal ganglion (Doods et al. 2000)

## NCCCC[C@H](NC(=O)[C@@H](Cc1cc(Br)c(O)c(Br)c1)NC(=O)N1CCC(N2Cc3ccccc3NC2=O)CC1)C(=O)N1CCN(c2ccncc2)CC1 [BIBN4096BS]
  effect on increase in facial blood flow: blocked
